Results: patent US20240228572A1 (i2o Therapeutics, Inc., priority 2020, published 2024)
*1 amine or outer side, *2 acyl side, *3 side chain or, on linkers, in order; H or OH if unused. Where a SMILES comes first, the peptide text is derived from it. Bridges are numbered along the chain shown (N, C = ends). Side-chain parts run from the residue outwards. [ ]: non-standard residue; d: D form. The star is where a group is joined. C20 diacid = O=C(O)CCCCCCCCCCCCCCCCCCC(=O)*; γGlu = O=C(O)[C@H](CCC(=O)[*:2])N[*:1]; AEEA = NCCOCCOCC(=O)O; Aib = CC(C)(N)C(=O)O

Key:
[1] = cited from earlier work
[2] = target: T1, human GLP-1 receptor (GLP-1R) (Homo sapiens, UniProt P43220); experiment: cAMP accumulation assay, CHO-K1 cells stably expressing human GLP-1R; type: cell-based; settings: cAMP accumulation, mean pEC50, Table 10
T1 construct: expressed in transfected cells

[3] = target: T2, human Glucagon receptor (GCGR) (Homo sapiens, UniProt P47871); experiment: cAMP accumulation assay, CHO-K1 cells expressing human GCGR; type: cell-based; settings: mean pEC50, Table 10
T2 construct: A cDNA fragment encoding the full-length open reading frame of the human GCGR; expressed in transfected cells; host or cells: CHO-K1, pcDNA3.1+, Lipofectamine 2000
T2 sequence (P47871 26-477): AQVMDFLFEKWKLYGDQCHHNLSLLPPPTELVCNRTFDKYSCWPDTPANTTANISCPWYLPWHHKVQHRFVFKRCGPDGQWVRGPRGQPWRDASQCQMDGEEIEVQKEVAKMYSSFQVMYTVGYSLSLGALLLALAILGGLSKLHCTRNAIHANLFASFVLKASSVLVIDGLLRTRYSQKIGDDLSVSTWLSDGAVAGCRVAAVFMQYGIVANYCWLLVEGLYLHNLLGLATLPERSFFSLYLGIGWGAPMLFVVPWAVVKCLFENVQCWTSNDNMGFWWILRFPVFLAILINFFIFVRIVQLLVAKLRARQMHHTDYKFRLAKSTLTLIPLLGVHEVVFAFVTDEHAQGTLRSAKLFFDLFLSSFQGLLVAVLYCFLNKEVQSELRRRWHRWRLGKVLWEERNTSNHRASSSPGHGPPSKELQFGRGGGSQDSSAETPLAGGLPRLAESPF

T1 sequence (P43220 24-463): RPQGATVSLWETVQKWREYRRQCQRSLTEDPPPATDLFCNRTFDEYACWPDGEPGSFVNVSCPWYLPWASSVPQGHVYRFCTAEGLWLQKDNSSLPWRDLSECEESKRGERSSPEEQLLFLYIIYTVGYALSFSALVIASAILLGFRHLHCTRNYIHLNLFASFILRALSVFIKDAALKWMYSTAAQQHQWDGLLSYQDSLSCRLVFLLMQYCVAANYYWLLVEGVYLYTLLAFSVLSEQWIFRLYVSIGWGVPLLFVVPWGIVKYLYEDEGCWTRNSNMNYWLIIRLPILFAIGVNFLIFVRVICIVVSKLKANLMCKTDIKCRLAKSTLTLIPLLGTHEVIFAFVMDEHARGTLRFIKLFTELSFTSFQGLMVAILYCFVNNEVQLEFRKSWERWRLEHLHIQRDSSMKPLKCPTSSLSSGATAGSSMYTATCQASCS

| Compound | half-life in serum [1] | EC50 [2] [pM] | EC50 [3] [pM] |
| --- | --- | --- | --- |
| human amylin: Human amylin, or islet amyloid polypeptide (IAPP), is a 37-residue polypeptide hormone (KCNTATCATQRLANFLVHSSNNFGAILSSTNVGSNTY; Islet amyloid polypeptide; UniProt P10997 34-70, looked up) | about 13 minutes | – | – |
| CC(C)C[C@H](NC(=O)[C@H](Cc1ccc(O)cc1)NC(=O)[C@H](CCCCN)NC(=O)[C@H](CO)NC(=O)[C@H](Cc1ccc(O)cc1)NC(=O)[C@H](CC(=O)O)NC(=O)[C@H](CO)NC(=O)[C@@H](NC(=O)[C@H](Cc1ccccc1)NC(=O)[C@@H](NC(=O)CNC(=O)[C@H](Cc1c[nH]cn1)NC(=O)[C@H](CO)NC(=O)[C@@H](N)Cc1ccc(O)cc1)[C@@H](C)O)[C@@H](C)O)C(=O)N[C@@H](CC(=O)O)C(=O)NC(C)(C)C(=O)N[C@@H](CCCCN)C(=O)N[C@@H](Cc1ccc(O)cc1)C(=O)N[C@@H](C)C(=O)N[C@@H](CCC(N)=O)C(=O)N[C@@H](CCCCNC(=O)CC[C@H](NC(=O)CC[C@H](NC(=O)CCCCCCCCCCCCCCCCCCC(=O)O)C(=O)O)C(=O)O)C(=O)N[C@@H](Cc1ccccc1)C(=O)N[C@H](C(=O)NC(C)(C)C(=O)N[C@@H](Cc1c[nH]c2ccccc12)C(=O)N[C@@H](CC(C)C)C(=O)N[C@@H](CCC(=O)O)C(=O)N[C@@H](CC(=O)O)C(=O)N[C@@H](CCC(=O)O)C(=O)N1CCC[C@H]1C(=O)N[C@@H](CO)C(=O)N[C@@H](CO)C(=O)NCC(=O)N[C@@H](C)C(=O)N1CCC[C@H]1C(=O)N1CCC[C@H]1C(=O)N1CCC[C@H]1C(=O)N[C@@H](CO)C(=O)O)C(C)C [Compound A14] (H-YSHGTFTSDYSKYLD[Aib]KYAQK([γGlu-γGlu-C20 diacid])FV[Aib]WLEDEPSSGAPPPS-OH; N-terminus assumed) | – | > 1000 | 6.31 |
| CC(C)C[C@H](NC(=O)[C@H](Cc1ccc(O)cc1)NC(=O)[C@H](CCCCN)NC(=O)[C@H](CO)NC(=O)[C@H](Cc1ccc(O)cc1)NC(=O)[C@H](CC(=O)O)NC(=O)[C@H](CO)NC(=O)[C@@H](NC(=O)[C@H](Cc1ccccc1)NC(=O)[C@@H](NC(=O)CNC(=O)[C@H](Cc1c[nH]cn1)NC(=O)[C@H](CO)NC(=O)[C@@H](N)Cc1ccc(O)cc1)[C@@H](C)O)[C@@H](C)O)C(=O)N[C@@H](CC(=O)O)C(=O)N[C@@H](CCCCNC(=O)CC[C@H](NC(=O)CC[C@H](NC(=O)CCCCCCCCCCCCCCCCCCC(=O)O)C(=O)O)C(=O)O)C(=O)N[C@@H](CCCCN)C(=O)N[C@@H](Cc1ccc(O)cc1)C(=O)N[C@@H](C)C(=O)N[C@@H](CCC(N)=O)C(=O)N[C@@H](CCC(=O)O)C(=O)N[C@@H](Cc1ccccc1)C(=O)N[C@H](C(=O)NC(C)(C)C(=O)N[C@@H](Cc1c[nH]c2ccccc12)C(=O)N[C@@H](CC(C)C)C(=O)N[C@@H](CCC(=O)O)C(=O)N[C@@H](CC(=O)O)C(=O)N[C@@H](CCC(=O)O)C(=O)N1CCC[C@H]1C(=O)N[C@@H](CO)C(=O)N[C@@H](CO)C(=O)NCC(=O)N[C@@H](C)C(=O)N1CCC[C@H]1C(=O)N1CCC[C@H]1C(=O)N1CCC[C@H]1C(=O)N[C@@H](CO)C(=O)O)C(C)C [Compound A13] (H-YSHGTFTSDYSKYLDK([γGlu-γGlu-C20 diacid])KYAQEFV[Aib]WLEDEPSSGAPPPS-OH) | – | > 1000 | 1 |
| CC(C)C[C@H](NC(=O)[C@H](Cc1ccc(O)cc1)NC(=O)[C@H](CCCCN)NC(=O)[C@H](CO)NC(=O)[C@H](Cc1ccc(O)cc1)NC(=O)[C@H](CC(=O)O)NC(=O)[C@H](CO)NC(=O)[C@@H](NC(=O)[C@H](Cc1ccccc1)NC(=O)[C@@H](NC(=O)CNC(=O)[C@H](Cc1c[nH]cn1)NC(=O)[C@H](CO)NC(=O)[C@@H](N)Cc1ccc(O)cc1)[C@@H](C)O)[C@@H](C)O)C(=O)N[C@@H](CC(=O)O)C(=O)N[C@@H](CCCCNC(=O)CC[C@H](NC(=O)CC[C@H](NC(=O)COCCOCCNC(=O)CCCCCCCCCCCCCCCCCCC(=O)O)C(=O)O)C(=O)O)C(=O)N[C@@H](CCCCN)C(=O)N[C@@H](Cc1ccc(O)cc1)C(=O)N[C@@H](C)C(=O)N[C@@H](CCC(N)=O)C(=O)N[C@@H](CCC(=O)O)C(=O)N[C@@H](Cc1ccccc1)C(=O)NC(C)(C)C(=O)N[C@@H](CCC(=O)O)C(=O)N[C@@H](Cc1c[nH]c2ccccc12)C(=O)N[C@@H](CC(C)C)C(=O)N[C@@H](CCC(=O)O)C(=O)N[C@@H](CC(=O)O)C(=O)N[C@@H](CCC(=O)O)C(=O)N1CCC[C@H]1C(=O)N[C@@H](CO)C(=O)N[C@@H](CO)C(=O)NCC(=O)N[C@@H](C)C(=O)N1CCC[C@H]1C(=O)N1CCC[C@H]1C(=O)N1CCC[C@H]1C(=O)N[C@@H](CO)C(=O)O [Compound A8] (H-YSHGTFTSDYSKYLDK([γGlu-γGlu-AEEA-C20 diacid])KYAQEF[Aib]EWLEDEPSSGAPPPS-OH; N-terminus assumed) | – | > 1000 | 126 |
| CC(C)C[C@H](NC(=O)[C@H](Cc1ccc(O)cc1)NC(=O)[C@H](CCCCN)NC(=O)[C@H](CO)NC(=O)[C@H](Cc1ccc(O)cc1)NC(=O)[C@H](CC(=O)O)NC(=O)[C@H](CO)NC(=O)[C@@H](NC(=O)[C@H](Cc1ccccc1)NC(=O)[C@@H](NC(=O)CNC(=O)[C@H](Cc1c[nH]cn1)NC(=O)[C@H](CO)NC(=O)[C@@H](N)Cc1ccc(O)cc1)[C@@H](C)O)[C@@H](C)O)C(=O)N[C@@H](CC(=O)O)C(=O)N[C@@H](CCCCNC(=O)CC[C@H](NC(=O)CC[C@H](NC(=O)COCCOCCNC(=O)CCCCCCCCCCCCCCCCCCC(=O)O)C(=O)O)C(=O)O)C(=O)N[C@@H](CCCCN)C(=O)N[C@@H](Cc1ccc(O)cc1)C(=O)N[C@@H](C)C(=O)N[C@H]1CCC(=O)NCCCC[C@@H](C(=O)N[C@@H](Cc2c[nH]c3ccccc23)C(=O)N[C@@H](CC(C)C)C(=O)N[C@@H](CCC(=O)O)C(=O)N[C@@H](CC(=O)O)C(=O)N[C@@H](CCC(=O)O)C(=O)N2CCC[C@H]2C(=O)N[C@@H](CO)C(=O)N[C@@H](CO)C(=O)NCC(=O)N[C@@H](C)C(=O)N2CCC[C@H]2C(=O)N2CCC[C@H]2C(=O)N2CCC[C@H]2C(=O)N[C@@H](CO)C(=O)O)NC(=O)[C@H](C(C)C)NC(=O)[C@H](Cc2ccccc2)NC(=O)[C@H](CCC(=O)O)NC1=O [Compound A12] (H-YSHGTFTSDYSKYLDK([γGlu-γGlu-AEEA-C20 diacid])KYAEEFVKWLEDEPSSGAPPPS-OH; lactam 20-24) | – | > 1000 | 1.58 |
| CC(C)C[C@H](NC(=O)[C@H](Cc1ccc(O)cc1)NC(=O)[C@H](CCCCN)NC(=O)[C@H](CO)NC(=O)[C@H](Cc1ccc(O)cc1)NC(=O)[C@H](CC(=O)O)NC(=O)[C@H](CO)NC(=O)[C@@H](NC(=O)[C@H](Cc1ccccc1)NC(=O)[C@@H](NC(=O)CNC(=O)[C@H](Cc1c[nH]cn1)NC(=O)[C@H](CO)NC(=O)[C@@H](N)Cc1ccc(O)cc1)[C@@H](C)O)[C@@H](C)O)C(=O)N[C@@H](CC(=O)O)C(=O)N[C@@H](CCCCNC(=O)CC[C@H](NC(=O)CC[C@H](NC(=O)COCCOCCNC(=O)CCCCCCCCCCCCCCCCCCC(=O)O)C(=O)O)C(=O)O)C(=O)N[C@@H](CCCCN)C(=O)N[C@@H](Cc1ccc(O)cc1)C(=O)N[C@@H](C)C(=O)N[C@H]1CCC(=O)NCCCC[C@@H](C(=O)N[C@@H](Cc2c[nH]c3ccccc23)C(=O)N[C@@H](CC(C)C)C(=O)N[C@@H](CCC(=O)O)C(=O)N[C@@H](CC(=O)O)C(=O)N[C@@H](CCC(=O)O)C(=O)N2CCC[C@H]2C(=O)N[C@@H](CO)C(=O)N[C@@H](CO)C(=O)NCC(=O)N[C@@H](CO)C(=O)N2CCC[C@H]2C(=O)N2CCC[C@H]2C(=O)N2CCC[C@H]2C(=O)N[C@@H](CO)C(=O)O)NC(=O)[C@H](C(C)C)NC(=O)[C@H](Cc2ccccc2)NC(=O)[C@H](CCCCN)NC1=O [Compound A33] (H-YSHGTFTSDYSKYLDK([γGlu-γGlu-AEEA-C20 diacid])KYAEKFVKWLEDEPSSGSPPPS-OH; lactam 20-24; N-terminus assumed) | – | > 1000 | 1.26 |
